In general, EC50 refers to the concentration at which the effect is half-maximal. Read a low EC50 as a more potent agent.

Where two headings read alike, the source gives them in different places. *1 amine or outer side, *2 acyl side, *3 side chain or, on linkers, in order; H or OH if unused. Where a SMILES comes first, the peptide text is derived from it. Bridges are numbered along the chain shown (N, C = ends). Where no end group is shown, it is not given here. [ ]: non-standard residue; d: D form. ξ: configuration not given here. ξαMeNle(6-ylidene) = CC(CCCC=[*:3])(N[*:1])C(=O)[*:2]; X1 = CC(CCCCCCC=[*:3])(N[*:1])C(=O)[*:2]

Seven molecules from US11352395B2, “Anticancer peptides” (IDP DISCOVERY PHARMA, S.L., priority 2017, dated 2022) can be followed below.

Experiment [1] has as its system 12O53, epithelial (glioblastoma, GMB). The format is cell-based, human. The source says: [drawing 12] a L birradical corresponding to -(CH2)3-CH═CH-(CH2)3- (for the case of NS02) or -(CH2)6-CH═CH-(CH2)3- (for the cases NS10, NS16 and Na05) links both Xs radicals in each sequence, and CPP2 corresponds to penetratine peptide. Cell Lines: NCI-H524, lung (small cell lung cancer, SCLC), ATCC-CRL-5831 RG1, epithelial (glioblastoma, GMB), from surgical specimens from patients GMB-27, epithelial (glioblastoma, GMB), from surgical specimens from patients 12O15, epithelial (glioblastoma, GMB), from surgical specimens from patients 12O53, epithelial (glioblastoma, GMB), from surgical specimens from patients 12O89, epithelial (glioblastoma, GMB), from surgical specimens from patients RG6, epithelial (glioblastoma, GMB), from surgical specimens from patients RG4, epithelial (glioblastoma, GMB), from surgical specimens from patients RG5, epithelial (glioblastoma, GMB), from surgical specimens from patients Cell Culture During the amplification step and the assays adherent cells were rinsed with DPBS (Dulbecco's Phosphate Buffered Saline, Sigma D1283) three times and afterward treated for 5 minutes with trypsin ([0.5 g/ml]/EDTA [0.2 g/ml]) (Gibco-BRL, 15400054) in solution of DPBS at 37° C., and, once detached, transferred in the culturing medium. No-adherent cells were dissociated with Accumax, centrifuged and transferred in the culturing medium. Cells were counted in a Neubauer chamber after labelling with Tripan-Blue. […] NCI-H524 were seeded at a density of 2500 cells/well in 96 well plates; […]6, 12015, 12089 and GBM-27 were dissociated with Accumax and plate on p96 wells covered with Matrigel. After 24 h, the compounds to be tested were added to calculate the dose/response curve at the starting concentration of 100 μM with serial dilutions (1:1). Controls are the untreated cells. Each experiment was performed in triplicate. Cells were incubated during 72-96 h in incubator under CO2 atmosphere at 37° C. Cell viability was measured by means of Alamar Blue® (Biosource DAL1100) and […], after treatment with Propidium iodide and Hoechst (GE Healthcare), following manufacturer instructions. Alamar Blue: 10 μl Alamar Blue solution was added to each well and the plates were incubated for […] in the incubator. Fluorescence ratio at 535/590 (excitation/emission) was measured in Cytofluor (Millipore) fluorimeter. Blank control was determined by lysis of untreated cells with con 2% of Triton X100, right before adding Alamar Blue solution. […] of propidium iodide and/or Hoechst solution was added to each well and the plates were incubated for 10 minutes protected by light. Control samples were represented by untreated cells and cell treated with 100% DMSO. Fluorescent stained cells which corresponds to death cells were detected by Cytell Imaging System and their amount calculated. % Viability=Number of non-blue cells×100/Number of total cells Statistics Data analysis was performed calculating the percentage of cell viability normalized vs. the values of negative control, which was considered equal to 100%. The dose/response curve was fitted through the sigmoidal equation dose-response (variable slope) and the EC50 values were calculated as follow: Y=Bottom+(Top-Bottom)/(1+10^{[(Log EC50-X)*HillSlope]}, where: X is compound concentration (log scale) and Y is the response

Experiment [2] concerns RG1, epithelial (glioblastoma, GMB).
Description: Alamar Blue: 10 μl Alamar Blue solution was added to each well and the plates were incubated for 4 in the incubator. Fluorescence ratio at 535/590 (excitation/emission) was measured in Cytofluor (Millipore) fluorimeter. Blank control was determined by lysis of untreated cells with con 2% of Triton X100, right before adding Alamar Blue solution.
Experiment [3] relates to NCI-H524, lung (small cell lung cancer, SCLC).
Excerpt: Cell Lines: NCI-H524, lung (small cell lung cancer, SCLC), ATCC-CRL-5831 RG1, epithelial (glioblastoma, GMB), from surgical specimens from patients GMB-27, epithelial (glioblastoma, GMB), from surgical specimens from patients 12O15, epithelial (glioblastoma, GMB), from surgical specimens from patients 12O53, epithelial (glioblastoma, GMB), from surgical specimens from patients 12O89, epithelial (glioblastoma, GMB), from surgical specimens from patients RG6, epithelial (glioblastoma, GMB), from surgical specimens from patients RG4, epithelial (glioblastoma, GMB), from surgical specimens from patients RG5, epithelial (glioblastoma, GMB), from surgical specimens from patients Cell Culture […]
During the amplification step and the assays adherent cells were rinsed with DPBS (Dulbecco's Phosphate Buffered Saline, Sigma D1283) three times and afterward treated for 5 minutes with trypsin ([0.5 g/ml]/EDTA [0.2 g/ml]) (Gibco-BRL, 15400054) in solution of DPBS at 37° C., and, once detached, transferred in the culturing medium. […] Cells were counted in a Neubauer chamber after labelling with Tripan-Blue. […]
Cells were incubated during 72-96 h in incubator under CO2 atmosphere at 37° C. Cell viability was measured by means of Alamar Blue® (Biosource DAL1100) and CYTELL™, after treatment with Propidium iodide and Hoechst (GE Healthcare), following manufacturer instructions. […]
Experiment [4] has as its system 12O15, epithelial (glioblastoma, GMB). Type of experiment: cell-based, human. The source says: (§1) [drawing 12] a L birradical corresponding to —(CH2)3—CH═CH—(CH2)3— (for the case of NS02) or —(CH2)6—CH═CH—(CH2)3— (for the cases NS10, NS16 and Na05) links both Xs radicals in each sequence, and CPP2 corresponds to penetratine peptide. Cell Lines: NCI-H524, lung (small cell lung cancer, SCLC), ATCC-CRL-5831 RG1, epithelial (glioblastoma, GMB), from surgical specimens from patients GMB-27, epithelial (glioblastoma, GMB), from surgical specimens from patients 12O15, epithelial (glioblastoma, GMB), from surgical specimens from patients 12O53, epithelial (glioblastoma, GMB), from surgical specimens from patients 12O89, epithelial (glioblastoma, GMB), from surgical specimens from patients RG6, epithelial (glioblastoma, GMB), from surgical specimens from patients RG4, epithelial (glioblastoma, GMB), from surgical specimens from patients RG5, epithelial (glioblastoma, GMB), from surgical specimens from patients Cell Culture
(§2) Cell lines NCI-H524 were cultured in incubator at 37° C. in RPMI-1640 (Sigma R8758) medium with 10% of fetal bovine serum inactivated (FBS) and 2 mM glutamine (Sigma G7513). Cell line RG1, RG4, RG5, RG6, 12015, 12089 and GBM-27 were cultured in incubator under CO2 (6%) at 37° C. in complete medium (Neurobasal+B27+Glutamax+Growth factors).
(§3) During the amplification step and the assays adherent cells were rinsed with DPBS (Dulbecco's Phosphate Buffered Saline, Sigma D1283) three times and afterward treated for 5 minutes with trypsin ([0.5 g/ml]/EDTA [0.2 g/ml]) (Gibco-BRL, 15400054) in solution of DPBS at 37° C., and, once detached, transferred in the culturing medium. No-adherent cells were dissociated with Accumax, centrifuged and transferred in the culturing medium. Cells were counted in a Neubauer chamber after labelling with Tripan-Blue.
(§4) NCI-H524 were seeded at a density of 2500 cells/well in 96 well plates; RG1, RG4, RG5, RG6, 12015, 12089 and GBM-27 were dissociated with Accumax and plate on p96 wells covered with Matrigel. After 24 h, the compounds to be tested were added to calculate the dose/response curve at the starting concentration of 100 μM with serial dilutions (1:1). Controls are the untreated cells. Each experiment was performed in triplicate.
(§5) Cells were incubated during 72-96 h in incubator under CO2 atmosphere at 37° C. Cell viability was measured by means of Alamar Blue® (Biosource DAL1100) and CYTELL™, after treatment with Propidium iodide and Hoechst (GE Healthcare), following manufacturer instructions.
(§6) Alamar Blue: 10 μl Alamar Blue solution was added to each well and the plates were incubated for […] in the incubator. Fluorescence ratio at 535/590 (excitation/emission) was measured in Cytofluor (Millipore) fluorimeter. Blank control was determined by lysis of untreated cells with con 2% of Triton X100, right before adding Alamar Blue solution.
(§7) CYTELL™: 10 μl of propidium iodide and/or Hoechst solution was added to each well and the plates were incubated for 10 minutes protected by light. Control samples were represented by untreated cells and cell treated with 100% DMSO. Fluorescent stained cells which corresponds to death cells were detected by Cytell Imaging System and their amount calculated. % Viability=Number of non-blue cells×100/Number of total cells Statistics
(§8) Data analysis was performed calculating the percentage of cell viability normalized vs. the values of negative control, which was considered equal to 100%. The dose/response curve was fitted through the sigmoidal equation dose-response (variable slope) and the EC50 values were calculated as follow: Y=Bottom+(Top−Bottom)/(1+10^{[(Log EC50−X)*HillSlope]}, where: X is compound concentration (log scale) and Y is the response

The test system of experiment [5] is 12O89, epithelial (glioblastoma, GMB). The format is cell-based, human.
Excerpt: as §1, §2, §3, §4, §5, §6, §7, §8

The subject of experiment [6] is GBM27 (GMB-27), epithelial (glioblastoma). The format is cell-based, human.
Excerpt: as §1, §2, §3, §4, §5, §6, §7, §8

The test system of experiment [7] is RG4, epithelial (glioblastoma, GMB). The format is cell-based, human.
Excerpt: as §1, §2, §3, §4, §5, §6, §7, §8

Experiment [8] concerns RG5, epithelial (glioblastoma, GMB). Type of experiment: cell-based, human.
Excerpt: as §1, §2, §3, §4, §5, §6, §7, §8

Experiment [9] has as its system RG6, epithelial (glioblastoma, GMB). The format is cell-based, human.
Excerpt: as §1, §2, §3, §4, §5, §6, §7, §8

The subject of experiment [10] is tumor cell lines. As to the kind of experiment: Anti-cancer activity in tumor cell lines (summary statements). The format is cell-based. The protocol:
NCI-H524 were seeded at a density of 2500 cells/well in 96 well plates; […]6, 12015, 12089 and GBM-27 were dissociated with Accumax and plate on p96 wells covered with Matrigel. After 24 h, the compounds to be tested were added to calculate the dose/response curve at the starting concentration of 100 μM with serial dilutions (1:1). Controls are the untreated cells. Each experiment was performed in triplicate. Cells were incubated during 72-96 h in incubator under CO2 atmosphere at 37° C. Cell viability was measured by means of Alamar Blue® (Biosource DAL1100) and […], after treatment with Propidium iodide and Hoechst (GE Healthcare), following manufacturer instructions. Data analysis was performed calculating the percentage of cell viability normalized vs. the values of negative control, which was considered equal to 100%. The dose/response curve was fitted through the sigmoidal equation dose-response (variable slope) and the EC50 values were calculated as follow: Y=Bottom+(Top-Bottom)/(1+10^{[(Log EC50-X)*HillSlope]}, where: X is compound concentration (log scale) and Y is the response

Regarding `CC(C)C[C@H](NC(=O)[C@H](Cc1ccccc1)NC(=O)C1(C)CCCC=CCCCC(C)(NC(=O)[C@H](CC(N)=O)NC(=O)[C@H](CCCNC(=N)N)NC(=O)[C@H](CCCNC(=N)N)NC(=O)[C@H](CCC(N)=O)NC(=O)[C@@H](N)CCCNC(=N)N)C(=O)N[C@@H](CC(C)C)C(=O)N[C@@H](CCCNC(=N)N)C(=O)N[C@@H](CO)C(=O)N1)C(=O)N[C@H](C(=O)N[C@@H](CC(C)C)C(=O)N[C@@H](CCCNC(=N)N)C(=O)N[C@@H](CC(=O)O)C(=O)N[C@@H](Cc1c[nH]cn1)C(N)=O)[C@@H](C)O` (stereo partly shown) [IDP-NS02] (H-RQRRN[ξαMeNle(6-ylidene)]LRS[ξαMeNle(6-ylidene)]FLTLRDH-NH2; staple 6-10; N-terminus and C-terminus assumed), the EC50 is > 100 µM in experiment [1], > 100 µM in experiment [2] and ~5 µM in experiment [3].
`CC[C@H](C)[C@@H]1NC(=O)[C@H](C(C)C)NC(=O)[C@H](C(C)C)NC(=O)C(C)(NC(=O)[C@H](C)NC(=O)[C@H](C)N)CCCCCCC=CCCCC(C)(C(=O)N[C@H](C(=O)N[C@@H](CCC(=O)O)C(=O)N[C@@H](Cc2ccc(O)cc2)C(=O)N[C@H](C(=O)N[C@@H](Cc2c[nH]cn2)C(=O)N[C@@H](CO)C(N)=O)C(C)C)[C@@H](C)O)NC(=O)[C@H](CCCCN)NC(=O)[C@H](CCCCN)NC(=O)[C@H](CC(C)C)NC1=O` (stereo partly shown) [IDP-NS10] (H-AA[X1]VVILKK[ξαMeNle(6-ylidene)]TEYVHS-NH2; staple 3-10; N-terminus and C-terminus assumed): the half-maximal effective concentration (EC50) in experiment [4] was ~10 µM; in [5] it was ~4 µM; in experiment [6], ~7.5 µM; in experiment [7] it was ~5 µM; in experiment [8], ~7 µM; in [9], ~5 µM. In addition, the EC50 was ~50 µM in experiment [1] and ~7 µM in [2].
On to `CC(C)C[C@@H]1NC(=O)[C@H](Cc2ccccc2)NC(=O)[C@H](CO)NC(=O)[C@H](CO)NC(=O)C(C)(NC(=O)[C@H](CC(C)C)NC(=O)[C@H](CC(=O)O)NC(=O)[C@H](CC(N)=O)NC(=O)[C@H](CCCNC(=N)N)NC(=O)[C@H](CCCNC(=N)N)NC(=O)[C@H](CCC(N)=O)NC(=O)[C@@H](N)CCCNC(=N)N)CCCCCCC=CCCCC(C)(C(=O)N[C@@H](CC(=O)O)C(=O)N[C@@H](Cc2c[nH]cn2)C(N)=O)NC(=O)[C@H](CC(C)C)NC(=O)[C@H]([C@@H](C)O)NC1=O` (stereo partly shown) [IDP-NS16] (H-RQRRNDL[X1]SSFLTL[ξαMeNle(6-ylidene)]DH-NH2; staple 8-15; N-terminus and C-terminus assumed), for which the figures for the EC50 in [1] and in experiment [2] were ~10 µM and ~15 µM, respectively.
Consider `CC(C)C[C@H](NC(=O)[C@H](CC(=O)O)NC(=O)[C@H](CC(N)=O)NC(=O)[C@H](CCCNC(=N)N)NC(=O)[C@@H](N)CCCNC(=N)N)C(=O)N[C@@H](CCCNC(=N)N)C(=O)N[C@@H](CO)C(=O)NC1(C)CCCCCCC=CCCCC(C)(C(=O)N[C@H](C(=O)N2CCC[C@H]2C(N)=O)C(C)C)NC(=O)[C@H](CC(=O)O)NC(=O)[C@H](CCCNC(=N)N)NC(=O)[C@H](CC(C)C)NC(=O)[C@H]([C@@H](C)O)NC(=O)[C@H](CC(C)C)NC(=O)[C@H](Cc2ccccc2)NC1=O` (stereo partly shown) [Na05] (H-RRNDLRS[X1]FLTLRD[ξαMeNle(6-ylidene)]VP-NH2; staple 8-15; N-terminus and C-terminus assumed), for which, in experiment [2], the EC50 is ~10 µM.
As to “AAKVVILKKATEYVHS-NH2 (C-terminus assumed) [IDP-wtLN10, reference compound]”, the EC50 in [1] and in experiment [2] was > 100 µM in each case. Besides, the “inhibiting cancer cell proliferation (in words)” value in [10] is reported as “not effective”.
For the molecule “RQIKIWFQNRRMKWKKRQRRNDLRSSFLTLRDHVP-NH2 [NLCa02]”, the “anti-cancer activity (in words)” value in experiment [10] (tumor cell lines) was “anti-cancer activity”. Moreover, the half-maximal effective concentration (EC50) in [2] (RG1 cell line, 72-96 h incubation) is ~5 µM.
“RRRRRRRAAKVVILKKATEYVHS-NH2 (C-terminus assumed) [IDP-intwtLN10, reference compound]”: the EC50 in experiment [1] and in experiment [2] was > 100 µM throughout. Moreover, in experiment [10], the “inhibiting cancer cell proliferation (in words)” value is “inactive”.
